Experimental findings from PubChem BioAssay AID179 (DTP/NCI, 2004) are described below.

This assay relates to CEM cells HIV-1 protection, formazan growth assay. Kind of assay: NCI AIDS Antiviral Assay. The settings on record: for IC50: measured here: growth of uninfected CEM cells. In a few lines:
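Screen of anti-HIV-1 activity in human CEM cells using a formazan-based growth measurement at five drug concentrations. Hits with 50% or greater protection were repeated, and confirmation required reproducible complete protection.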

Each structure is given as a SMILES string. Active and inactive are the calls of the source.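 How the source made its calls: active means compounds giving half or more protection of infected cells from virus-caused growth loss, again on retest; inactive means the rest.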 Where only a bound is given, the exact number is not on record here.

On to `CC(=O)N1CN=C2Sc3ccccc3N2C1`, for which the EC50 was above 200 µM and the IC50 was above 200 µM. Consider `COc1cc(/C=C/c2ccnc3ccccc23)cc(OC)c1OC`, for which the EC50 was above 200 µM and the IC50 was determined as 1.48 µM.

Turning to `CC(C)c1ccc(C(c2ccc(OCC(=O)NCCN(C)C)cc2)c2ccc(C(C)C)cc(=O)c2O)c(O)c(=O)c1`, the outcome was inactive. As to `O=[N+]([O-])c1ccc(-c2ccc(-c3csc(Nc4ccccn4)n3)o2)cc1`, the EC50 was above 5.5 µM and the IC50 was above 5.5 µM. Take `CC(CS(=O)(=O)O)NC(CO)(CO)CO` (stereo not given): the EC50 was above 200 µM and the half-inhibitory concentration (IC50) was above 200 µM. On to `C[C@H](NC(=O)c1ccccc1SC(=O)CCCC[n+]1ccccc1)C(N)=O`, for which the EC50 is 0.933 µM and the concentration for half-maximal inhibition (IC50) was above 100 µM. For `CCOC(=O)C1=C(C)C(C(=O)OC)[C@]2(C)C(C(=O)OCC)=C(O)C(C(=O)OC)[C@]12C` (stereo not given in full) the same measures were above 126 µM and above 126 µM. For `O=C1CCC(c2ccccc2)(C2CCN(Cc3ccc(F)cc3)CC2)C(=O)N1` (stereo not given) the same measures were above 200 µM and 123 µM. In the case of `CC(=O)c1ccccc1NS(=O)(=O)c1ccc2nc(C)n(NS(=O)(=O)c3ccccc3C(C)=O)c(=O)c2c1`, the EC50 is above 200 µM and the concentration for half-maximal inhibition (IC50) was above 200 µM. Regarding `CCOC(=O)c1nc2c(OC)nn(O)cc-2c1Br`, the EC50 is above 794 µM and the IC50 is above 794 µM. In the case of `COc1ccc(/C=C/CN(C)CCc2ccccc2)cc1OC`, the outcome was inactive. Still for that read-out and setting: to `C=CC1C(C[C@@H]2c3cc(O)c(O)cc3CCN2C(C)=O)C(C(=O)OC)=CO[C@H]1OC1OC(CO)C(O)C(O)C1O` (stereo not given in full) belongs “inactive”. Take `COC(=O)[C@H]1COC(=O)N1`: the EC50 is above 200 µM and the IC50 was above 200 µM.

Take `COc1ccc(-c2c(C#N)c(N)n(C3OCC(O)C(O)C3O)c(=S)c2C#N)cc1` (stereo not given): the EC50 was above 200 µM and the IC50 was 117 µM.

In the case of `CN(C)c1nc(N(C)C)nc(N2C(=O)c3ccccc3C2=O)n1`, the EC50 was above 100 µM and the IC50 was found to be 0.389 µM. With `CCC[CH2][Sn]([CH2]CCC)([CH2]CCC)[CH2]N1CCC(=O)C[C@@H]1C/C=C/[P@]1(=O)O[C@H](c2ccccc2)C(C)N1C(C)C` (stereo not given in full), the result was inactive. Regarding `NCCN1C(=O)c2ccccc2C1c1ccc(Cl)cc1` (stereo not given), the EC50 is above 200 µM and the IC50 was above 200 µM. `CC(=O)C1CC2=C(CCC1=O)CCC1(CC2)OCCO1` (stereo not given): the outcome was inactive. For `Cc1sc(C)c2c1C(=O)CC2N` (stereo not given), the EC50 is above 200 µM and the IC50 is 9.77 µM. With `CC1(C)OC(C(C)(C)O)C(C(C)(C)O)O1` (stereo not given), the EC50 is above 200 µM and the 50% inhibitory concentration (IC50) was above 200 µM. For `CC1=[N+]([O-])C(C)(C)N(O)C1(C)C`, the EC50 is above 200 µM and the IC50 was above 200 µM. For `CN1CCC2(CC1)C(=O)N(NC(N)=O)C(=O)C2c1ccccc1` (stereo not given), the EC50 was above 200 µM and the 50% inhibitory concentration (IC50) is above 200 µM.

With `c1ccc(CCn2cncn2)cc1`, the EC50 was above 1200 µM and the IC50 was above 1200 µM. Turning to `C=C1CN(S(=O)(=O)c2ccc(C)cc2)CCCN(CC2CC=CCC2)CCCN(S(=O)(=O)c2ccc(C)cc2)C1` (stereo not given), the EC50 was above 200 µM and the IC50 came out at 1.29 µM. For `COC(=O)c1cc(C(=CCCO)c2cc(Cl)c(OC)c(C(=O)OC)c2)cc(Cl)c1OC` the same measures were above 200 µM and 24.5 µM. For `O=C(Nc1ccc(C(F)(F)F)cc1)NC(F)(F)F` the same measures were above 200 µM and above 200 µM. For `CCCCCCCCCc1c(O)c(O)c(CCCCCCCCC)c(CCCCCCCCC)c1CCCCCCCCC` the same measures were above 100 µM and 16.6 µM.

For the molecule `CC1CCOn2c1nc1ccccc1c2=O` (stereo not given), the EC50 was above 33.1 µM and the IC50 is above 33.1 µM. With `NCC1CCC(C(=O)O)CC1` (stereo not given), the EC50 is above 200 µM and the IC50 was above 200 µM. `CC1(C)CCC(Sc2ccccc2)O1` (stereo not given): the result was inactive. As to `CCC[CH2][Sn]([CH2]CCC)([CH2]CCC)/[C](=C/[Si](C)(C)c1ccccc1)c1ccc2c(c1)OCO2`, the EC50 was above 3.47 µM and the IC50 was above 3.47 µM. Turning to `N#CCCN(CCC#N)c1ccc(/C=C(/NC(=O)Nc2ccccc2Cl)NC(=O)c2cc([N+](=O)[O-])ccc2Cl)cc1`, the EC50 is above 12.3 µM and the IC50 was determined as 1.91 µM. The like results for `O=C(O)CCC(=O)c1ccc2c(c1)C(C(=O)O)CC2` (stereo not given) were, in that order, above 200 µM and above 200 µM. The like results for `CCOC(=O)NC(C(=O)OCC)C(F)(F)F` (stereo not given) were, in that order, above 200 µM and 102 µM. With `CC(=O)OC12C=CC(=O)N1c1ccccc1C(=O)O2` (stereo not given), the result was inactive. On to `C/C(=C1/N=C(c2cc([N+](=O)[O-])ccc2Cl)N(c2ccc(Br)cc2)C1=O)c1cc2ccccc2oc1=O`, for which the EC50 was above 24 µM. In the case of `CNc1ncc2nc(C)c(=O)n(C)c2n1`, the EC50 is above 200 µM and the IC50 was above 200 µM. As for `COc1ccc(/C=C/C(CC(NO)c2ccc(OC)cc2)=N\O)cc1` (stereo not given), the EC50 is above 200 µM and the IC50 was above 100 µM. The like results for `CC1(C)CC(/C=C2/OC(=O)c3ccccc32)=C(C(N)=O)C(=O)O1` were, in that order, above 83.2 µM and above 83.2 µM. For the molecule `O=C1CCCC12CCOC2=O` (stereo not given), the EC50 is above 1620 µM and the concentration for half-maximal inhibition (IC50) is above 1620 µM. Consider `CN(C)/C=C/C(=CC=[N+](C)C)/C=C/N(C)C`, for which the result was inactive. Turning to `CC1CN=C(N(C(=O)Nc2ccccc2)C2CCCCC2)S1` (stereo not given), the outcome was inactive.

Turning to `O=C(/C=C/c1ccc(O)c(O)c1)OC(Cc1ccc(O)c(O)c1)C(=O)O` (stereo not given), the EC50 is above 200 µM and the IC50 worked out at 26.3 µM. Regarding `CCOC(=O)/C(=C\c1cccc(C#N)c1)P(=O)(OCC)OCC`, the EC50 is above 537 µM and the IC50 was found to be 11 µM. For `CC(=O)OC(Cc1c(O)c2c(C)cccc2oc1=O)C(C)(C)O` (stereo not given) the same measures were above 200 µM and 91.2 µM. For `CCN(CC)CCCCCCCNc1c2ccc(Cl)cc2nc2ccc(OC)cc12` the same measures were above 2 µM and 0.427 µM. The like results for `CC1(C)CC(=O)C(/C=N/C(=S)NCCc2ccccc2)=C(O)C1` were, in that order, above 200 µM and above 200 µM. In the case of `O=S1(=O)CCc2ccccc2C(Cl)C1` (stereo not given), the EC50 was above 407 µM and the IC50 is above 407 µM. In the case of `c1ccc2c(c1)NC1=C(CSCC1)c1nncn1-2`, the EC50 is above 200 µM and the IC50 was above 200 µM.

As for `COC(=O)/C(Cl)=C1/CC1COCc1ccccc1` (stereo not given), the EC50 is above 186 µM and the half-maximal inhibitory concentration (IC50) was 107 µM. For `O=c1oc2c3ccc4ccccc4c3n(Cc3nc4ccccc4[nH]3)c2c2ccccc12` the same measures were above 8.32 µM and 4.68 µM.

Turning to `CCCCNCCCC.[C-]#[O+].[C-]#[O+].[C-]#[O+].[C-]#[O+].[C-]#[O+].[Cr]`, the EC50 is above 200 µM and the IC50 came to 56.2 µM.

With `O=C1OC(=O)C2C1C1C(c3ccccc3)=C(c3ccccc3)C2(O)C2C(=O)OC(=O)C12` (stereo not given), the EC50 was above 17.4 µM and the IC50 was 10.2 µM. For `CC(=O)OC/C=C/Cn1cnc(C(N)=O)c1N` the same measures were above 200 µM and above 200 µM. For the molecule `CC(=O)n1c(O)c(N=Nc2ccccc2[N+](=O)[O-])c2ccccc21`, the EC50 was above 200 µM and the IC50 is above 200 µM. As to `COC(=O)c1c(-c2ccccc2)cc2c3cc(-c4ccccc4)c(C(=O)OC)n3c3ccccc3n12`, the EC50 is above 28.8 µM and the 50% inhibitory concentration (IC50) is above 28.8 µM. As for `CSc1nn(C)cc2ncnc1-2`, the EC50 is above 200 µM and the IC50 is above 200 µM. With `CC(=O)CC[N+](C)(C)C`, the outcome was inactive.

As for `CSc1nc(NC2OCC(O)C(O)C2O)c(N)c(=O)n1C` (stereo not given), the result was inactive. For `CC(C)C1/C(=N/O)CC(c2ccccc2)N(N=O)C1c1ccccc1` (stereo not given), the EC50 is above 200 µM and the IC50 amounted to 66.1 µM. The like results for `O=C(Nc1ccc(Cl)c(Cl)c1)C(=O)C(C(=O)c1ccccc1-c1ccccc1)C1OC(=O)c2ccccc21` (stereo not given) were, in that order, above 66.1 µM and 29.5 µM. For `O=P(Oc1ccccc1)(Oc1ccccc1)N1CCOCC1` the same measures were above 200 µM and 170 µM. In the case of `O=C(O)CCCc1ccc([As](=O)(O)O)cc1[N+](=O)[O-]`, the EC50 is above 200 µM and the IC50 is above 200 µM. Regarding `O=c1ccc2cc(O)ccc2o1`, the EC50 was above 200 µM and the IC50 was above 200 µM.

As to `CN(C)CCCSc1c2ccccc2nc2cc(NCC(=O)Nc3ccccc3-c3ccccc3NC(=O)CNc3ccc4c(SCCCN(C)C)c5ccccc5nc4c3)ccc12`, the EC50 is above 123 µM and the IC50 was found to be 58.9 µM.

For the molecule `O=c1cc(NNc2cccc(Cl)c2)[nH]c(=O)[nH]1`, the EC50 was above 200 µM and the IC50 worked out at 1.05 µM. For `Cn1c(=O)c2c(nc3[nH]c(=O)c(Br)cn32)n(C)c1=O` the same measures were above 100 µM and 20.4 µM. For `CC[N+]1(CC)CC[N+]2(CCCC(C)CC2)CC1` (stereo not given), the result was inactive. As for `COc1ccc(C=C(C(=O)c2ccccc2)C(=O)c2ccccc2)cc1`, the EC50 is above 20.9 µM and the IC50 is above 20.9 µM.

Consider `NS(=O)(=O)c1ccc(NNc2c3ccccc3nc3c(C(=O)Nc4ccc(S(=O)(=O)Nc5ncccn5)cc4)cccc23)cc1`, for which the EC50 is above 50.1 µM and the IC50 was determined as 26.9 µM. For `CC1(c2cccc([N+](=O)[O-])c2)C(C#N)C(=O)NC(=O)C1C#N` (stereo not given) the same measures were above 417 µM and 245 µM. On to `CC(OCc1ccccc1)C1OC2(C)CCC(=O)C1O2` (stereo not given), for which the result was inactive. Same read-out and setting: to `c1cncc(CN2CCCCC2)c1` belongs “inactive”. Take `NC(=O)C(NN=C1c2ccccc2-c2ccccc21)(c1ccccc1)c1ccccc1`: the EC50 is above 200 µM and the IC50 worked out at 28.2 µM. The like results for `CNc1[nH]c(=S)nc2sc3c(c12)CCCC3` were, in that order, above 151 µM and 112 µM.

A word on the EC50: it is the concentration at which the effect is half-maximal. In general, IC50 refers to the concentration needed to halve the response being measured.
